{"source": "patent US20150005379A1", "about": "“[…] METHOD” (PeroxyChem LLC, priority 2013, published 2015)", "system": "fecal coliform", "experiment": "Fecal coliform count of wastewater at the contact chamber exit after peracetic acid dosing", "assay_type": "cell-based", "conditions": "post-sand filter wastewater, 60 min average contact time", "description": "Wastewater was diverted post-sand filter treatment at a wastewater treatment plant into a rectangular weir disinfectant contact chamber. The flow rate of wastewater through the contact chamber was set at seven gallons per minute; the average contact time in the contact chamber was 60 minutes.\nVigorOx® WWT peracetic acid (FMC Corporation; 15% peracetic acid, 23% hydrogen peroxide by weight) was dosed into the wastewater through Control Corporation lab grade pumps. In Comparative Experiment A, the PAA was introduced just prior to the wastewater's entrance into the contact chamber at a rate of 6.1 ppm. In Example 1, PAA was introduced just prior to the wastewater's entrance into the contact chamber at a rate of 1.5 ppm; and additionally at a point 50 minutes after the wastewater's entry into the contact chamber at a rate of 4.5 ppm. The fecal coliform count of the wastewater was measured at the point the wastewater exited from the contact chamber."}
{"smiles": "CC(=O)OO", "note": "[PAA, peracetic acid]", "values": [{"measurement": "samples tested with no-detectable readings of coliform bacteria", "setting": "Comparative Experiment A: PAA added at a sole point just prior to entrance into contact chamber, 6.1 ppm", "value": "about 35%"}, {"measurement": "samples tested with no-detectable readings of coliform bacteria", "setting": "Example 1: PAA added at two points, 1.5 ppm just prior to entrance and 4.5 ppm at 50 minutes after entry", "value": "about 50%"}]}
